Test results from patent US12371454B2, “Cyclic peptide compound having Kras inhibitory action” (priority 2019, dated 2025).
Starred links: 1 amine or outer side, 2 acyl side, 3 side chain; linkers in the order of their positions; H or OH if unused. Positions of bridges follow the written chain, without caps; N, C: chain ends. Non-standard residues stand in square brackets, D forms with d. Residues, ends and D or L forms follow the SMILES beside them. *: point of attachment. hPhe(3,5-F2-4-CF3) = N[C@@H](CCc1cc(F)c(C(F)(F)F)c(F)c1)C(=O)O; hPhe(3-Cl-4-CF3) = N[C@@H](CCc1ccc(C(F)(F)F)c(Cl)c1)C(=O)O; NMePhe(4-CF3) = CN[C@@H](Cc1ccc(C(F)(F)F)cc1)C(=O)O; hPhe(4-CF3) = N[C@@H](CCc1ccc(C(F)(F)F)cc1)C(=O)O; NEtPhe(4-Cl) = CCN[C@@H](Cc1ccc(Cl)cc1)C(=O)O; NMePhe(4-Cl) = CN[C@@H](Cc1ccc(Cl)cc1)C(=O)O; X62 = O=C([C@H](Cc1cc(I)ccc1Br)N[*:1])[*:2]; NMePhe(4-F) = CN[C@@H](Cc1ccc(F)cc1)C(=O)O; NMeMet(O2) = CN[C@@H](CCS(C)(=O)=O)C(=O)O; NMe3Pal = CN[C@@H](Cc1cccnc1)C(=O)O; NMeY = CN[C@@H](Cc1ccc(O)cc1)C(=O)O; NMeCha = CN[C@@H](CC1CCCCC1)C(=O)O; NMeChg = CN[C@H](C(=O)O)C1CCCCC1; NMeI = CC[C@H](C)[C@H](NC)C(=O)O; d(β3hL) = CC(C)C[C@@H](N)CC(=O)O; NMeD = CN[C@@H](CC(=O)O)C(=O)O; NMeL = CN[C@@H](CC(C)C)C(=O)O; NMeV = CN[C@H](C(=O)O)C(C)C; d(β3hA) = C[C@@H](N)CC(=O)O; NMeAbu = CC[C@H](NC)C(=O)O; NMeA = CN[C@@H](C)C(=O)O; NMeAib = CNC(C)(C)C(=O)O; Nle = CCCC[C@H](N)C(=O)O; Piperidide = C1CCN(*)CC1; dNMeA = CN[C@H](C)C(=O)O; Ac5c = NC1(C(=O)O)CCCC1; Aze = O=C(O)[C@@H]1CCN1; Isopentyl = CC(C)CC*; NEtG = CCNCC(=O)O; Sar = CNCC(=O)O

Each compound was assayed against T1, Kras and SOS1 (biotin-tagged human Kras loaded with GDP, His-tagged human SOS1) (Homo sapiens, UniProt P01116, G12D) (assay: Protein-protein interaction inhibition between Kras and SOS1 (KrasGl2D-SOS PPI) using AlphaScreen). Conditions: AlphaScreen; biotin-tagged human Kras loaded with GDP, His-tagged human SOS1; read-out: KRAS G12D-SOS PPI IC50.
T1 construct: made in house; host or cells: E. coli (stated for Kras only)
T1 sequence (P01116 1-188 isoform P01116-2 G12D): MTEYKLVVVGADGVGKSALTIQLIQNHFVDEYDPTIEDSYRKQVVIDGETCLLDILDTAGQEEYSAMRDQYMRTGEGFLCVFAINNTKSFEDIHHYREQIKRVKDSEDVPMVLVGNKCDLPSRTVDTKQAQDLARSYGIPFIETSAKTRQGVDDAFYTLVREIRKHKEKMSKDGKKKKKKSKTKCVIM
Assay type: binding
How it was run: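 Read-out is acceptor-bead light at 520-620 nm, arising when 680 nm-irradiated nickel donor beads pass singlet oxygen to streptavidin acceptors. The bead pair links His-tagged SOS1 with biotin-tagged, GDP-bound Kras from E. coli.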

| SMILES | IC50 [nM] |
| --- | --- |
| CC[C@H](C)[C@@H]1NC(=O)[C@H](C)N(C)C(=O)C[C@@H](C)NC(=O)[C@H](C(C)C)N(C)C(=O)C2(CCCC2)NC(=O)[C@@H]2CCCN2C(=O)[C@H](CCc2ccc(C(F)(F)F)c(Cl)c2)NC(=O)[C@@H](C)N(C)C(=O)[C@H](CC2CCCCC2)N(C)C(=O)[C@@H]2CCCN2C(=O)CN(CC)C1=O [Compound 2014] (cyclo([Ac5c][NMeV][d(β3hA)][NMeA]I[NEtG]P[NMeCha][dNMeA][hPhe(3-Cl-4-CF3)]P)) | 340 |
| CCCC[C@@H]1NC(=O)[C@H](CCc2ccc(C(F)(F)F)c(Cl)c2)NC(=O)CN(C)C(=O)[C@H](Cc2ccc(Cl)cc2)N(CC)C(=O)CN(C)C(=O)CN(C)C(=O)[C@H]([C@@H](C)CC)NC(=O)[C@H](CC(C)C)N(C)C(=O)C[C@@H](C(=O)N2CCCCC2)N(C)C(=O)[C@H](CC(C)C)NC(=O)C(C)(C)N(C)C1=O [Compound 895] ([NMeL]I[Sar][Sar][NEtPhe(4-Cl)][Sar][hPhe(3-Cl-4-CF3)][Nle][NMeAib]L[NMeD]-Piperidide; lactam N-11) | 8.4 |
| CC[C@H](C)[C@@H]1NC(=O)[C@H](C)N(C)C(=O)C[C@@H](C)NC(=O)[C@H](C(C)C)N(C)C(=O)C2(CCCC2)NC(=O)[C@@H]2CCCN2C(=O)[C@H](CCc2ccc(C(F)(F)F)c(Cl)c2)NC(=O)[C@H]2CCCN2C(=O)[C@H](Cc2ccc(F)cc2)N(C)C(=O)[C@@H]2CCCN2C(=O)CN(C)C1=O [Compound 1667] (cyclo([Ac5c][NMeV][d(β3hA)][NMeA]I[Sar]P[NMePhe(4-F)][dP][hPhe(3-Cl-4-CF3)]P)) | 13 |
| CC[C@H](C)[C@@H]1NC(=O)[C@H](C)N(C)C(=O)C[C@@H](C(=O)N2CCCCC2)N(C)C(=O)[C@H](C2CCCCC2)N(C)C(=O)C2(CCCC2)NC(=O)[C@H](Cc2cccnc2)N(C)C(=O)[C@H](CCc2ccc(C(F)(F)F)c(Cl)c2)NC(=O)CN(C)C(=O)[C@H](CC2CCCCC2)N(C)C(=O)[C@@H]2CCCN2C(=O)CN(C)C1=O [Compound 433] ([NMeA]I[Sar]P[NMeCha][Sar][hPhe(3-Cl-4-CF3)][NMe3Pal][Ac5c][NMeChg][NMeD]-Piperidide; lactam N-11) | 2.2 |
| CC[C@H](C)[C@@H]1NC(=O)[C@H](CC(C)C)N(C)C(=O)C[C@@H](C(=O)N2CCCCC2)N(C)C(=O)[C@H](C(C)C)N(C)C(=O)C2(CCCC2)NC(=O)[C@@H]2CCCN2C(=O)[C@H](CCc2ccc(C(F)(F)F)c(Cl)c2)NC(=O)CN(C)C(=O)[C@H](CCS(C)(=O)=O)N(C)C(=O)[C@@H]2CCN2C(=O)[C@H](C)N(C)C1=O [Compound 235] ([NMeL]I[NMeA][Aze][NMeMet(O2)][Sar][hPhe(3-Cl-4-CF3)]P[Ac5c][NMeV][NMeD]-Piperidide; lactam N-11) | 11 |
| CCCC[C@@H]1NC(=O)[C@H](Cc2cc(I)ccc2Br)NC(=O)CN(C)C(=O)[C@H](Cc2ccc(OC)cc2)N(C)C(=O)[C@@H]2CCN2C(=O)[C@H](C)N(C)C(=O)[C@H]([C@@H](C)CC)NC(=O)[C@H](CC)N(C)C(=O)C[C@@H](C(=O)N2CCCCC2)N(C)C(=O)[C@H](CC(C)C)NC(=O)C(C)(C)N(C)C1=O [Compound 1155] ([NMeAbu]I[NMeA][Aze][NMeY](Me)[Sar][X62][Nle][NMeAib]L[NMeD]-Piperidide; lactam N-11) | 170 |
| CC[C@H](C)[C@@H]1NC(=O)[C@H](C(C)C)N(C)C(=O)C[C@@H](C)NC(=O)[C@H](CC(C)C)N(C)C(=O)C2(CCCC2)NC(=O)[C@H](CC(C)C)N(C)C(=O)[C@H](CCc2ccc(C(F)(F)F)cc2)NC(=O)CN(C)C(=O)[C@H](Cc2ccc(Cl)cc2)N(C)C(=O)[C@@H]2CCN2C(=O)CN(C)C1=O [Compound 645] (cyclo([Ac5c][NMeL][d(β3hA)][NMeV]I[Sar][Aze][NMePhe(4-Cl)][Sar][hPhe(4-CF3)][NMeL])) | 58 |
| CC[C@H](C)[C@@H]1NC(=O)[C@H](CC(C)C)N(C)C(=O)C[C@@H](CC(C)C)NC(=O)[C@H]([C@@H](C)CC)N(C)C(=O)C2(CCCC2)NC(=O)[C@@H]2CCCN2C(=O)[C@H](CCc2cc(F)c(C(F)(F)F)c(F)c2)NC(=O)CN(C)C(=O)[C@H](Cc2ccc(C(F)(F)F)cc2)N(C)C(=O)[C@@H]2CCN2C(=O)[C@H](C)N(C)C1=O [Compound 1918] (cyclo([Ac5c][NMeI][d(β3hL)][NMeL]I[NMeA][Aze][NMePhe(4-CF3)][Sar][hPhe(3,5-F2-4-CF3)]P)) | 280 |
| CC(C)CCOC[C@@H]1NC(=O)[C@H](CC(C)C)N(C)C(=O)C[C@@H](C(=O)N2CCCCC2)N(C)C(=O)[C@H](C2CCCCC2)N(C)C(=O)C2(CCCC2)NC(=O)[C@@H]2CCCN2C(=O)[C@H](CCc2ccc(C(F)(F)F)c(Cl)c2)NC(=O)CN(C)C(=O)[C@H](CC2CCCCC2)N(C)C(=O)CN(C)C(=O)CN(C)C1=O [Compound 794] ([NMeL]S(Isopentyl)[Sar][Sar][NMeCha][Sar][hPhe(3-Cl-4-CF3)]P[Ac5c][NMeChg][NMeD]-Piperidide; lactam N-11) | 11 |
